Experimental data taken from US20230323466A1, “DETERMINING CANCER RESPONSIVENESS TO TREATMENT” (Queensland University of Technology, priority 2020, published 2023).

How the values were obtained:
[1] = system: PLK1; assay: Mitotic index (H3S10ph) in cells expressing wildtype or T210D PLK1 (FIG. 4D); type: cell-based; settings: dose dependent
[2] = system: NSCLC cells; assay: Cell death with cisplatin and/or BI 2536 in control versus CDCA3 depleted NSCLC cells (FIG. 9B); type: cell-based; settings: monotherapy
[3] = system: control and CDCA3-depleted cells; assay: Mitotic entry and recovery from cisplatin-induced G2 checkpoint, flow cytometry of Ser-10 phosphorylated histone H3 (FIG. 2C); type: cell-based; settings: after cisplatin-induced G2 checkpoint; both control and CDCA3-depleted cells
From the text: FIG. 2. (A) Undamaged cells depleted of CDCA3 progress to mitosis slower than control cells or cells complemented with siRNA resistant CDCA3. (B) Cisplatin treated cells and depleted of CDCA3 are unable to recover from cell cycle arrest. (C) Cells treated with Cisplatin and then a PLK1 inhibitor are unable to recover from cell cycle arrest.
As this protein is reported to regulate cell proliferation (as confirmed by data in FIG. 7), the present inventors investigated its potential role in cell cycle progression from G2 into mitosis. To examine cell cycle progression, control cells, CDCA3-depleted cells or depleted cells ectopically expressing siRNA resistant CDCA3-FLAG were synchronized at the G1/S cell cycle boundary by a double thymidine block and released for seven hours (˜G2 phase). At this time cells were treated with or without cisplatin for 3.5 h and released into nocodazole containing media to capture cells in mitosis. Mitotic cells were determined by flow cytometry analysis of cells stained for Ser-10 phosphorylated histone H3. In undamaged cells, CDCA3 depletion slowed the progression of cells from G2 into mitosis (FIG. 2A). However, in cisplatin treated cells, CDCA3 depletion abolished mitotic progression with an inability to recover from G2 cell cycle arrest (FIG. 2B). […]

[4] = system: CDCA3 and PLK1; assay: Immunoprecipitation of CDCA3 with PBD of PLK1 under CDK1 inhibition (FIG. 5E); type: cell-based; settings: inhibition of CDK1 to block CDCA3 phosphorylation
From the text: FIG. 5. (A) PLK1 schematic listing kinase domain and polo-box domain (PBD). (B) CDCA3 immunoprecipitates with the PBD of PLK1 irrespective of the phospho-binding mutant (H538 and K540 each mutated to alanine residues). (C) CDCA3 is phosphorylated by CDK1-cyclin B1 causing a large molecular weight shift measured by SDS-PAGE. (D) Mutating each of the five CDK1-cyclin B1 phosphorylation sites within CDCA3 enhances binding to PLK1. (E) Inhibition of CDK1 with RO3306 enhances immunoprecipitation of CDCA3 with the PBD domain of PLK1. (F) Unmodified recombinant CDCA3 binds to recombinant Aurora A and PLK1. CDCA3 pre-phosphorylated by CDK1-cyclin B1 binds markedly less to PLK1 than unmodified CDCA3. (G) Recombinant unmodified CDCA3 but not phosphorylated CDCA3 enhances the in vitro activation and phosphorylation of PLK1 by Aurora A.
The present inventors next examined the mechanism regulating the association between CDCA3 and PLK1. The structure of PLK1 consists of an N-terminal kinase domain and a […] polo-box domain (PBD; FIG. 5A). Classically, the PBD binds phosphorylated substrates requiring the residues His538 and Lys540. Using immunoprecipitation analysis of lysates from cells ectopically expressing CDCA3 and the PBD of PLK1, it was identified that CDCA3 associates with the PLK1 PBD independent of residues His538 and Lys540 (FIG. 5B). […]

[5] = system: NSCLC cells; assay: Cisplatin IC50 in CDCA3-depleted versus control NSCLC cells (FIG. 8); type: cell-based
From the text: FIG. 8. CDCA3-depletion reduces cisplatin IC50 values ˜2-4 fold versus control NSCLC cells but not non-tumorigenic lung epithelial HBEC cells, indicating increased sensitivity to cisplatin in NSCLC in vitro.
To investigate the diagnostic potential for CDCA3, the present inventors stratified the UT Lung SPORE cohort data based on CDCA3 expression (CDCA3low=below median, CDCA3high=above median). In this trial, patients undergoing curative resection were either observed only (OBS) or received adjunct chemotherapy (ACT).

[6] = system: HCC827 cells
Description: (§1) All NSCLC cell lines were obtained from the American Type Culture Collection (ATCC) except for PC-9 cell line which was sourced from the European Collection of Cell Cultures (ECACC). Cells were grown in RPMI-1640-medium containing L-glutamine (Life Technologies) and 10% foetal bovine serum (FBS, Sigma Aldrich). […] All cell lines were cultured at 37° C. in a humidified 5% CO2 incubator and routinely tested for mycoplasma contamination. Transfection of CDCA3-FLAG expression construct was performed using the FuGene HD transfection reagent (Promega Corporation).
(§2) Cells were seeded into a white-walled, glass-bottomed 384-well plate (Nunc) at a density of 1x10^3 cells per well. […] Cell viability was determined using CellTitre-Glo 2.0 (Promega Corporation) according to the manufacturer's instructions. Luminescence was scanned and analysed on the FLUOstar Omega Microplate Reader (BMG Labtech). Data was normalised to untreated controls and dose response curves and drug potency values generated using GraphPad Prism V9 software.
(§3) The present inventors next sought to assess this possibility in in vitro models of acquired TKI resistance. […] Cells not exposed to TKI were also maintained in culture for the same period, hereafter referred to as the parental cells.

[7] = system: H1975 cells; assay: Cell viability assay (CellTitre-Glo 2.0), H1975; type: cell-based; settings: Homo sapiens, NCI-H1975, 72 h
Description: as §1, §2
(§4) The present inventors evaluated TCGA datasets and correlated relative CDCA3 expression against available WikiPathways (2) of known measures of TKI resistance. […] Relative CDCA3 protein levels were correlated with the TKI potency values.

[8] = system: H1650 cells; assay: Cell viability assay (CellTitre-Glo 2.0), H1650; type: cell-based; settings: relative to other cell lines
Description: as §1, §2, §4

[9] = system: PC-9 cells; type: cell-based; settings: for effect of ectopic CDCA3 expression on sensitivity: PC-9 parental cells; for enhancement of potency by ectopic CDCA3 expression: PC-9 resistant cells
Description: as §1, §2, §3

[10] = system: CDCA3; assay: CDCA3 levels after TKI treatment of EGFR mut NSCLC cell lines (FIG. 12); type: cell-based; settings: H1975 cells (L858R, T790M)
Description: Given CDCA3 levels are responsive to EGFR activation, the present inventors examined CDCA3 levels following second and third generation TKI treatment of three EGFR^mut cell lines; HCC827 and H1650 (exon 19 deletion E746-A750) and H1975 cells (L858R, T790M-resistant to first and second generation TKI).
To collect whole cell lysates, cells were first washed in PBS then lysed in lysis buffer (50 mM HEPES (pH 7.5), 150 mM KCl, 5 mM EDTA, 0.05% IGEPAL CA-630 (v/v), 1× protease inhibitor cocktail (Roche), and 1× phosphatase inhibitor cocktail (Cell Signalling Technology). Total protein was determined by bicinchoninic acid (BCA) protein assay (Sigma Aldrich) following lysate sonication and centrifugation. Samples (total protein 20 20 μg) were denatured in 1× Laemmli Buffer supplemented with 8% β-mercaptoethanol for 5 minutes at 80° C.
The samples were separated on Bolt 4-12% Bis-Tris Plus pre-cast gels (Invitrogen) and transferred onto nitrocellulose membrane (GE Healthcare Life Sciences) using the semi-dry Novex XCell II Blot Module transfer system (Life Technologies). The nitrocellulose membranes were blocked using Odyssey blocking buffer (Li-Cor) before incubation overnight at 4° C. with primary antibody in a 1:1 solution of PBS-T and Odyssey Blocking Buffer. Following primary antibody incubation, membranes were washed with PBS-T and incubated with the appropriate secondary antibodies. […]

SMILES: CC[C@@H]1C(=O)N(C)c2cnc(Nc3ccc(C(=O)NC4CCN(C)CC4)cc3OC)nc2N1C1CCCC1 [BI 2536]
- mitotic entry (mitotic index) [1]: reduced
- cell death ([2]; CDCA3 depleted cells): ~13%
- cell death ([2]; control cells): ~30%
- mitotic entry [3]: blocked mitotic entry

SMILES: O=C1NC(=NCc2cccs2)S/C1=C\c1ccc2ncccc2c1 [R03306]
- association between CDCA3 and PLK1 [4]: increase

SMILES: N.N.[Cl][Pt][Cl] [cisplatin]
- reduction of cisplatin IC50 values by CDCA3-depletion [5]: 2-4 fold

SMILES: C#Cc1cccc(Nc2ncnc3cc(OCCOC)c(OCCOC)cc23)c1 [erlotinib]
- effect of ectopic CDCA3 expression on sensitivity [6]: did not impact
- IC50 [7]: 66.6 µM
- sensitivity [8]: insensitive
- effect of ectopic CDCA3 expression on sensitivity [9]: did not impact
- enhancement of potency by ectopic CDCA3 expression [9]: ~57 fold

SMILES: C=CC(=O)Nc1cc(Nc2nccc(-c3cn(C)c4ccccc34)n2)c(OC)cc1N(C)CCN(C)C [osimertinib]
- effect of ectopic CDCA3 expression on sensitivity [6]: did not impact
- enhancement of potency by ectopic CDCA3 expression [6]: ~121 fold
- increase in IC50 values versus parental [6]: ~385 fold
- CDCA3 levels [10]: reduced
- effect of ectopic CDCA3 expression on sensitivity [9]: did not impact
- enhancement of potency by ectopic CDCA3 expression [9]: 54 fold
- increase in IC50 values versus parental ([9]; erlotinib resistant PC-9 versus parental PC-9): ~1,470 fold
